Measured values reported in ChEMBL document CHEMBL6127029, “Glutathione-dependent degradation of SMARCA2/4 for targeted lung cancer therapy with improved selectivity” (Eur J Med Chem, 2024).
Calls of active or inactive are those of the source. The rule behind the calls is not given here.

How the values were obtained:
[1] = Toxicity in BALB/c mouse xenografted with human A549 cells assessed as change in body weight at 80 mg/kg,IT(Intratumoral) administrated every four days for 16 days; format: organism-based; settings: in vivo, other, 384 h, time 16 day
A549 [2] = assay: Antitumor activity against human A549 cells xenografted in BALB/c mouse assessed as reduction in tumor weight at 80 mg/kg,IT(Intratumoral) administrated every four days for 16 days; format: functional, organism-based; settings: time 16.0 day
A549 [3] = assay: Antitumor activity against human A549 cells xenografted in BALB/c mouse assessed as upregulation of cleaved caspase-3 expression at 80 mg/kg,IT(Intratumoral) administrated every four days for 16 days by immunohistochemistry analysis; format: functional, organism-based; settings: time 16.0 day
[4] = molecular target: T1, von Hippel-Lindau disease tumor suppressor/SWI/SNF-related matrix-associated actin-dependent regulator of chromatin subfamily A member 2 (Homo sapiens) (UniProt P51531+P40337); assay: PROTAC activity at VHL/SMARCA2 in human 786-0 cells harboring mutated VHL assessed as induction of SMARCA2 degradation at 0.1 to 5 uM incubated for 8 hrs by Western blotting analysis; format: cell-based; settings: dose 0.1-5 µM
T1 sequence (P40337 whole entry, looked up): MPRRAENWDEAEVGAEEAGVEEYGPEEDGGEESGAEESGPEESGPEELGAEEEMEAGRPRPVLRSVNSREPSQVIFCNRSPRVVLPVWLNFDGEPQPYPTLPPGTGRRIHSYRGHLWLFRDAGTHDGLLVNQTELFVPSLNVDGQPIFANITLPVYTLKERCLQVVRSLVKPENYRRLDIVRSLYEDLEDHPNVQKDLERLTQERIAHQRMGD
T1 sequence (P51531 whole entry, looked up): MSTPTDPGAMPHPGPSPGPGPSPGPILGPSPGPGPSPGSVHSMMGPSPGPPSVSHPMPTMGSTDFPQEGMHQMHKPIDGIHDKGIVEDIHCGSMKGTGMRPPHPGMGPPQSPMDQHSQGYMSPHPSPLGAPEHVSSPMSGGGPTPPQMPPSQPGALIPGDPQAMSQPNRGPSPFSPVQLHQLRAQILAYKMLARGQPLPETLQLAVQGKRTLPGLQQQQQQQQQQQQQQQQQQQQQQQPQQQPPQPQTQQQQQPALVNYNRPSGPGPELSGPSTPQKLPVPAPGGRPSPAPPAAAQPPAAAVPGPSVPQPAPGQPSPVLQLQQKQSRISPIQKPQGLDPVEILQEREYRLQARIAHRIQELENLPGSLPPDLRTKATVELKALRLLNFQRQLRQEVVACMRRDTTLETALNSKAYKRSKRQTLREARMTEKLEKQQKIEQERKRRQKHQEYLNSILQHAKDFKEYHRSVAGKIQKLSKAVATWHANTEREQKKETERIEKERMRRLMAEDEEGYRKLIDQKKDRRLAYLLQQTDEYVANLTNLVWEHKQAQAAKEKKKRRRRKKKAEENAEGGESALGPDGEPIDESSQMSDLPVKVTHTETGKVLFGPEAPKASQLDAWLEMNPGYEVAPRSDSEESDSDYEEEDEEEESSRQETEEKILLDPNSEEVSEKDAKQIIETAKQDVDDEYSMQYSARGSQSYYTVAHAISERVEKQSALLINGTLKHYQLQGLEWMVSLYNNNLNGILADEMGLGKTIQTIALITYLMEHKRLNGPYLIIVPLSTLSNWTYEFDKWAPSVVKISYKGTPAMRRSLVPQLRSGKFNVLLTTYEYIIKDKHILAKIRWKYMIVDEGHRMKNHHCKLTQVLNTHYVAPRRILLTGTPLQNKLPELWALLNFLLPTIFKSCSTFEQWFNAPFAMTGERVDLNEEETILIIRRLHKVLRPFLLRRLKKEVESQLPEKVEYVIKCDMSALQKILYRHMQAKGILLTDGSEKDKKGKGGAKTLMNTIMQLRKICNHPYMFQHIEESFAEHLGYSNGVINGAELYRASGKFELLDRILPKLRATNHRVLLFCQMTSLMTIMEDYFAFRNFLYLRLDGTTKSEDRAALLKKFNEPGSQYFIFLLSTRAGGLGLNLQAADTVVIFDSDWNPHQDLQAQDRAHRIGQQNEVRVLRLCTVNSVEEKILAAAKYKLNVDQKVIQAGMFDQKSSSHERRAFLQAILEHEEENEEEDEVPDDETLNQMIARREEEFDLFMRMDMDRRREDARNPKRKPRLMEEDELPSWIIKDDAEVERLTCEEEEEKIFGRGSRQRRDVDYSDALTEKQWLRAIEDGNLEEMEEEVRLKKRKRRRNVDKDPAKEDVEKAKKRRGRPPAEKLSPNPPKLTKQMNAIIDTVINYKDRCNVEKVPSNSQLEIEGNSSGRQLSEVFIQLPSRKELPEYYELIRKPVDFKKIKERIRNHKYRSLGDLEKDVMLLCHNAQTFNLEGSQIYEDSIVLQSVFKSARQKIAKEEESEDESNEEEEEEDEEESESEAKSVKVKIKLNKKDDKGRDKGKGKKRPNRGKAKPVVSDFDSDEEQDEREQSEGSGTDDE

[5] = Toxicity in BALB/c mouse xenografted with human A549 cells assessed as morphological change in kidney at 80 mg/kg,IT(Intratumoral) administrated every four days for 16 days by hematoxylin and eosin staining based microscopic analysis; format: organism-based; settings: in vivo, other, 384 h, time 16 day
[6] = Toxicity in BALB/c mouse xenografted with human A549 cells assessed as morphological change in liver at 80 mg/kg,IT(Intratumoral) administrated every four days for 16 days by hematoxylin and eosin staining based microscopic analysis; format: organism-based; settings: in vivo, other, 384 h, time 16 day
A549 [7] = assay: Antitumor activity against human A549 cells xenografted in BALB/c mouse assessed as downregulation of SMARCA2 expression at 80 mg/kg,IT(Intratumoral) administrated every four days for 16 days by Western blotting analysis; format: functional, organism-based; settings: time 16.0 day
A549 [8] = assay: Antitumor activity against human A549 cells xenografted in BALB/c mouse assessed as upregulation of cleaved caspase-3 expression at 80 mg/kg,IT(Intratumoral) administrated every four days for 16 days by Western blotting analysis; format: functional, organism-based; settings: time 16.0 day
A549 [9] = assay: Antitumor activity against human A549 cells xenografted in BALB/c mouse assessed as reduction in tumor volume at 80 mg/kg,IT(Intratumoral) administrated every four days for 16 days; format: functional, organism-based; settings: time 16.0 day
[10] = molecular target: T1, von Hippel-Lindau disease tumor suppressor/SWI/SNF-related matrix-associated actin-dependent regulator of chromatin subfamily A member 2 (Homo sapiens); assay: PROTAC activity at VHL/SMARCA2 in human A549 cells assessed as induction of SMARCA2 degradation at 1 uM by Western blotting analysis; format: cell-based; settings: TDE = time-dependent effect
[11] = molecular target: T1, von Hippel-Lindau disease tumor suppressor/SWI/SNF-related matrix-associated actin-dependent regulator of chromatin subfamily A member 2 (Homo sapiens); assay: PROTAC activity at VHL/SMARCA2 in human A549 cells harboring shRNA mediated VHL knockdown assessed as induction of SMARCA2 degradation at 0.1 to 2 uM incubated for 8 hrs by Western blotting analysis; format: cell-based; settings: dose 0.1-2 µM
A549 [12] = assay: Cytotoxicity against human A549 cells assessed as inhibition of cell growth incubated for 3 days by MTT assay; format: functional, cell-based; settings: A549, 72 h
HuLEC-5a [13] = assay: Inhibition of colony formation in human HuLEC-5a cells assessed as reduction in colony size at 0.8 to 20 uM incubated for 13 days by crystal violet staining based analysis; format: functional, cell-based; settings: dose 0.8-20 µM, time 13.0 day
[14] = molecular target: T1, von Hippel-Lindau disease tumor suppressor/SWI/SNF-related matrix-associated actin-dependent regulator of chromatin subfamily A member 2 (Homo sapiens); assay: PROTAC activity at VHL/SMARCA2 in human A549 cells assessed as induction of SMARCA2 degradation at 1 uM pretreated with MG132 followed by compound addition and measured after 8 hrs by Western blotting analysis; format: cell-based
[15] = molecular target: T1, von Hippel-Lindau disease tumor suppressor/SWI/SNF-related matrix-associated actin-dependent regulator of chromatin subfamily A member 2 (Homo sapiens); assay: PROTAC activity at VHL/SMARCA2 in human A549 cells assessed as induction of SMARCA2 degradation at 1 uM pretreated with MLN4924 followed by compound addition and measured after 8 hrs by Western blotting analysis; format: cell-based
[16] = molecular target: T2, von Hippel-Lindau disease tumor suppressor/SWI/SNF-related matrix-associated actin-dependent regulator of chromatin subfamily A member 4 (Homo sapiens) (UniProt P51532+P40337); assay: PROTAC activity at VHL/SMARCA4 in human HEK-293T cells assessed as induction of SMARCA4 degradation at 1 uM incubated for 24 hrs by Western blotting analysis relative to control; format: cell-based
T2 sequence (P40337 whole entry, looked up): as the sequence (P40337 whole entry, looked up) above
T2 sequence (P51532 whole entry, looked up): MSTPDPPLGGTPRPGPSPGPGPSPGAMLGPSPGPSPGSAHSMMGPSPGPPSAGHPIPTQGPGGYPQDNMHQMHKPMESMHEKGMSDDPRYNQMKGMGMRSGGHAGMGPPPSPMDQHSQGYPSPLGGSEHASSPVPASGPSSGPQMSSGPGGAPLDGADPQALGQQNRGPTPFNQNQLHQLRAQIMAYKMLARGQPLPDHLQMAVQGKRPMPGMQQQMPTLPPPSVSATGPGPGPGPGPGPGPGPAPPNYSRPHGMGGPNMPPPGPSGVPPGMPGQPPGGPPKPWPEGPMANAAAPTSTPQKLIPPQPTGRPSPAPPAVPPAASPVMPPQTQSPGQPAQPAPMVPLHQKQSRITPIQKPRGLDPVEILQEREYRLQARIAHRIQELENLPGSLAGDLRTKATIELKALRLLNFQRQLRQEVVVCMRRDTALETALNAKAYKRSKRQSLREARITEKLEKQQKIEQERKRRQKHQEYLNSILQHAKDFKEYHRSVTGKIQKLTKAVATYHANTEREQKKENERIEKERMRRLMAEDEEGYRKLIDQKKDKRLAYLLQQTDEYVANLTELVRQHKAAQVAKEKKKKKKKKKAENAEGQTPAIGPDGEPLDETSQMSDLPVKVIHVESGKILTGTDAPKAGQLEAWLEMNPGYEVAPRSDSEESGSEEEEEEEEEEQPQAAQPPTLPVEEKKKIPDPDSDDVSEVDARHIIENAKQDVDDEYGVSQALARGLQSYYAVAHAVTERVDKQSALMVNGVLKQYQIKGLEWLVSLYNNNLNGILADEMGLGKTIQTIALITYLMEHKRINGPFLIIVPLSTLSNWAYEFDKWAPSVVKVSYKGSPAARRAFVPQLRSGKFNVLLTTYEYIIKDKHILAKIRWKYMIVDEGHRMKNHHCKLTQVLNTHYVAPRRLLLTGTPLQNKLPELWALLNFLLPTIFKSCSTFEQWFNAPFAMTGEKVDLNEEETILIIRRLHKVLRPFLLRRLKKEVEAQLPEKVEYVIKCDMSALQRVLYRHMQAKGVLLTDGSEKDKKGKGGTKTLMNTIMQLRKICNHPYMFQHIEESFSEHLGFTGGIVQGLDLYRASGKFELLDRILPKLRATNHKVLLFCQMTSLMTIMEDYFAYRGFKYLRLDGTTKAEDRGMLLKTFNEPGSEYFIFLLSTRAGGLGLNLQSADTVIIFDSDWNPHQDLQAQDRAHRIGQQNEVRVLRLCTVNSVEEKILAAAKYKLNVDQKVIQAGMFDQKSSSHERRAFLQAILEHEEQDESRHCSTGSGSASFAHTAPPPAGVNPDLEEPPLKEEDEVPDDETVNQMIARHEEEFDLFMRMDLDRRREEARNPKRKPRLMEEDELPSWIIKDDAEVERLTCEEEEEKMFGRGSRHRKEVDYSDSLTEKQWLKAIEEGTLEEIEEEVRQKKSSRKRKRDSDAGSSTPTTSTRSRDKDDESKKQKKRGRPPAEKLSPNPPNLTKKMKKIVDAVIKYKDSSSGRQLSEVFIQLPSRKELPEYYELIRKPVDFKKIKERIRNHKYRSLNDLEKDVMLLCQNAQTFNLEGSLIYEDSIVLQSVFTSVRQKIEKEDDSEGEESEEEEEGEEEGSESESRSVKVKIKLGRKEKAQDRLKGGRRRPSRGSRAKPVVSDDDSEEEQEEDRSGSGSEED

[17] = molecular target: T1, von Hippel-Lindau disease tumor suppressor/SWI/SNF-related matrix-associated actin-dependent regulator of chromatin subfamily A member 2 (Homo sapiens); assay: PROTAC activity at VHL/SMARCA2 in human NCI-H1299 cells assessed as induction of SMARCA2 degradation at 1 uM by Western blotting analysis; format: cell-based; settings: TDE = time-dependent effect
[18] = molecular target: T2, von Hippel-Lindau disease tumor suppressor/SWI/SNF-related matrix-associated actin-dependent regulator of chromatin subfamily A member 4 (Homo sapiens); assay: PROTAC activity at VHL/SMARCA4 in human 786-0 cells harboring mutated VHL assessed as induction of SMARCA4 degradation at 0.1 to 5 uM incubated for 8 hrs by Western blotting analysis; format: cell-based; settings: dose 0.1-5 µM
A549 [19] = assay: Inhibition of colony formation in human A549 cells assessed as reduction in colony size at 0.8 to 20 uM incubated for 13 days by crystal violet staining based analysis; format: functional, cell-based; settings: dose 0.8-20 µM, time 13.0 day
[20] = Toxicity in BALB/c mouse xenografted with human A549 cells assessed as morphological change in lung at 80 mg/kg,IT(Intratumoral) administrated every four days for 16 days by hematoxylin and eosin staining based microscopic analysis; format: organism-based; settings: in vivo, other, 384 h, time 16 day
A549 [21] = assay: Antitumor activity against human A549 cells xenografted in BALB/c mouse assessed as downregulation of SMARCA2 expression at 80 mg/kg,IT(Intratumoral) administrated every four days for 16 days by immunohistochemistry analysis; format: functional, organism-based; settings: time 16.0 day
HuLEC-5a [22] = assay: Inhibition of colony formation in human HuLEC-5a cells assessed as reduction in colony number at 0.8 to 20 uM incubated for 13 days by crystal violet staining based analysis; format: functional, cell-based; settings: dose 0.8-20 µM, time 13.0 day
A549 [23] = assay: Inhibition of colony formation in human A549 cells assessed as reduction in colony number at 0.8 to 20 uM incubated for 13 days by crystal violet staining based analysis; format: functional, cell-based; settings: dose 0.8-20 µM, time 13.0 day
[24] = Stability in mouse plasma at 10 uM incubated for 24 hrs by HPLC analysis; format: ADME, cell-free
[25] = molecular target: T1, von Hippel-Lindau disease tumor suppressor/SWI/SNF-related matrix-associated actin-dependent regulator of chromatin subfamily A member 2 (Homo sapiens); assay: PROTAC activity at VHL/SMARCA2 in human A549 cells assessed as induction of SMARCA2 degradation at 1 uM pretreated with VHL-ligand followed by compound addition and measured after 8 hrs by Western blotting analysis; format: cell-based
[26] = Toxicity in BALB/c mouse xenografted with human A549 cells assessed as morphological change in heart at 80 mg/kg,IT(Intratumoral) administrated every four days for 16 days by hematoxylin and eosin staining based microscopic analysis; format: organism-based; settings: in vivo, other, 384 h, time 16 day
A549 [27] = assay: Antitumor activity against human A549 cells xenografted in BALB/c mouse assessed as reduction in tumor size at 80 mg/kg,IT(Intratumoral) administrated every four days for 16 days; format: functional, organism-based; settings: time 16.0 day
[28] = molecular target: T1, von Hippel-Lindau disease tumor suppressor/SWI/SNF-related matrix-associated actin-dependent regulator of chromatin subfamily A member 2 (Homo sapiens); assay: PROTAC activity at VHL/SMARCA2 in human A549 cells assessed as induction of SMARCA2 degradation at 1 uM pretreated with 2-(4-(3-Amino-6-(2-hydroxyphenyl)pyridazin-4-yl)piperazin-1-yl) acetic acid trifluoroacetate followed by compound addition and measured after 8 hrs by Western blotting analysis; format: cell-based
[29] = Stability of the compound in cell culture medium containing 10% fetal bovine serum at 50 uM incubated for 72 hrs by HPLC analysis; format: physicochemical, cell-free; settings: cattle
A549 [30] = assay: Antitumor activity against human A549 cells xenografted in BALB/c mouse assessed as upregulation of gamma-H2AX expression at 80 mg/kg,IT(Intratumoral) administrated every four days for 16 days by immunohistochemistry analysis; format: functional, organism-based; settings: time 16.0 day
[31] = molecular target: T1, von Hippel-Lindau disease tumor suppressor/SWI/SNF-related matrix-associated actin-dependent regulator of chromatin subfamily A member 2 (Homo sapiens); assay: PROTAC activity at VHL/SMARCA2 in human A549 cells assessed as induction of SMARCA2 degradation at 1 uM incubated for 24 hrs by Western blotting analysis; format: cell-based
[32] = Toxicity in BALB/c mouse xenografted with human A549 cells assessed as morphological change in spleen at 80 mg/kg,IT(Intratumoral) administrated every four days for 16 days by hematoxylin and eosin staining based microscopic analysis; format: organism-based; settings: in vivo, other, 384 h, time 16 day
[33] = molecular target: T1, von Hippel-Lindau disease tumor suppressor/SWI/SNF-related matrix-associated actin-dependent regulator of chromatin subfamily A member 2 (Homo sapiens); assay: PROTAC activity at VHL/SMARCA2 in human HEK-293T cells assessed as induction of SMARCA2 degradation at 1 uM incubated for 24 hrs by Western blotting analysis relative to control; format: cell-based
A549 [34] = assay: Inhibition of cell migration in human A549 cells at 10 uM incubated for 36 hrs by scratch wound healing based fluorescent microscopic analysis; format: functional
[35] = molecular target: T1, von Hippel-Lindau disease tumor suppressor/SWI/SNF-related matrix-associated actin-dependent regulator of chromatin subfamily A member 2 (Homo sapiens); assay: PROTAC activity at VHL/SMARCA2 in human A549 cells assessed as induction of SMARCA2 degradation at 1 uM incubated for 8 hrs in presence of GSH scavenger NEM by Western blotting analysis; format: cell-based
A549 [36] = assay: Antitumor activity against human A549 cells xenografted in BALB/c mouse assessed as upregulation of Ki67 expression at 80 mg/kg,IT(Intratumoral) administrated every four days for 16 days by immunohistochemistry analysis; format: functional, organism-based; settings: time 16.0 day
NCI-H1299 = assay: Cytotoxicity against human NCI-H1299 cells assessed as inhibition of cell growth incubated for 3 days by MTT assay; format: functional, cell-based; settings: NCI-H1299, 72 h
[37] = molecular target: T1, von Hippel-Lindau disease tumor suppressor/SWI/SNF-related matrix-associated actin-dependent regulator of chromatin subfamily A member 2 (Homo sapiens); assay: PROTAC activity at VHL/SMARCA2 in human NCI-H1299 cells harboring shRNA mediated VHL knockdown assessed as induction of SMARCA2 degradation at 0.1 to 2 uM incubated for 8 hrs by Western blotting analysis; format: cell-based; settings: dose 0.1-2 µM

Cc1ncsc1-c1ccc(CNC(=O)[C@@H]2C[C@@H](O)CN2C(=O)[C@@H](NC(=O)CN2CCN(c3cc(-c4ccccc4OS(=O)(=O)c4ccc([N+](=O)[O-])cc4)nnc3N)CC2)C(C)(C)C)cc1
Activity [1]: Non-Toxic | Activity (A549 [2]): Active | Activity (A549 [3]): Active | Activity [4]: inactive | Activity [5]: Non-Toxic | Activity [6]: Non-Toxic | Activity (A549 [7]): Active | Activity (A549 [8]): Active | Activity (A549 [9]): Active | Activity [10]: Tde | Activity [11]: inactive | IC50 (A549 [12]): 9.1 µM | inhibition (HuLEC-5a [13]): inactive | Activity [14]: inactive | Activity [15]: inactive | Activity [16]: inactive | Activity [17]: Tde | Activity [18]: inactive | inhibition (A549 [19]): Active | Activity [20]: Non-Toxic | Activity (A549 [21]): Active | inhibition (HuLEC-5a [22]): inactive | inhibition (A549 [23]): Active | Stability [24]: Stable | Activity [25]: inactive | Activity [26]: Non-Toxic | Activity (A549 [27]): Active | Activity [28]: inactive | Stability [29]: Stable | Activity (A549 [30]): Active | Activity [31]: Active | Activity [32]: Non-Toxic | Activity [33]: inactive | inhibition (A549 [34]): Active | Activity [35]: inactive | Activity (A549 [36]): Active | IC50 (NCI-H1299): 21.8 µM | Activity [37]: inactive
